The record followed here is ChEMBL document CHEMBL1131005, “Synthesis and dopamine transporter affinity of the four stereoisomers of (+/-)-2-(methoxycarbonyl)-7-methyl-3-phenyl-7-azabicyclo[2.2.1]heptane” (J Med Chem, 1998).

Chain of Sodium-dependent dopamine transporter (P23977 whole entry): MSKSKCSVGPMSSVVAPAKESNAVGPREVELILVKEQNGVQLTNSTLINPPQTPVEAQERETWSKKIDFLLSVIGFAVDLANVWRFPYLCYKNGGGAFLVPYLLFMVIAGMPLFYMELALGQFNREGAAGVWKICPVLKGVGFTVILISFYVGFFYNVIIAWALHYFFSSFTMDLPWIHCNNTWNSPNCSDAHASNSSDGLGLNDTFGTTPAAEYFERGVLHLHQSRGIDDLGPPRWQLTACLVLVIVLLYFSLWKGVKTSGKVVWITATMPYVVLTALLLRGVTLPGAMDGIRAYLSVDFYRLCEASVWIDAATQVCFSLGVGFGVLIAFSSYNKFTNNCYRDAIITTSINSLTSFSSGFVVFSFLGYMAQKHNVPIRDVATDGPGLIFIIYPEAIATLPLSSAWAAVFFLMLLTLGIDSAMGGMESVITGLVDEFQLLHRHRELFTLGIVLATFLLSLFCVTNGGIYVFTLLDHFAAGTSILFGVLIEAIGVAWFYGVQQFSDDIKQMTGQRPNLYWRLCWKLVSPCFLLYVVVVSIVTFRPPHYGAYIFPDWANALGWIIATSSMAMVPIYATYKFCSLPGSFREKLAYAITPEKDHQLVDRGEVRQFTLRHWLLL

The experiment addresses Sodium-dependent dopamine transporter (Rattus norvegicus, UniProt P23977). The experiment in a line: Binding affinity towards dopamine transporter using [3H]WIN-35428 as radioligand in rat caudate-putamen tissue. The class given is tissue-based.
Molecule `COC(=O)[C@@H]1C2CCC([C@H]1c1ccccc1)N2C` (stereo partly drawn) gave an inhibitory constant (Ki) of 5.62 µM.
`COC(=O)[C@H]1C2CCC([C@H]1c1ccccc1)N2C` (stereo partly drawn) showed a Ki of 18.9 µM.
The value for `COC(=O)[C@@H]1C2CCC([C@@H]1c1ccccc1)N2C` (stereo partly drawn) was 60.4 µM.

What is called Ki is a dissociation constant, usually derived from enzyme kinetics or from competition with a known ligand.
